system: not given; assay: not given

SMILES	melting point [°C]
Cc1cccc(-c2nc(Nc3ccc(Cl)cc3)c3ccccc3n2)n1 [Compound A1, (4-Chloro-Phenyl)-[2-(6-Methyl-Pyridin-2-yl)-Quinazolin-4-yl]-Amine]	256.1 to 259.1
COc1cccc(-c2nc(Nc3ccc(Cl)cc3)c3ccccc3n2)n1 [Compound A4, (4-Chloro-Phenyl)-[2-(6-Methoxy-Pyridin-2-yl)-Quinazolin-4-yl]-Amine]	156.8 to 160
O=C(c1ccccc1)c1cccnc1-c1nc(NC2CCCCC2)c2ccccc2n1 [Compound B1, [2-(4-Cyclohexylamino-Quinazolin-2-yl)-Pyridin-3-yl]-Phenyl-Methanone]	204 to 208
Cc1cccc(-c2nc(NCc3ccc(Cl)cc3)c3ccccc3n2)n1 [Compound B3, (4-Chloro-Benzyl)-[2-(6-Methyl-Pyridin-2-yl)-Quinazolin-4-yl]-Amine]	209.9 to 212.2
Clc1ccc(Nc2nc(-c3nccc4ccccc34)nc3ccccc23)cc1 [Compound B10, (4-Chloro-Phenyl)-(2-Isoquinolin-1-yl-Quinazolin-4-yl)-Amine]	279 to 280.5
c1ccc2c(-c3nc(NC4CCCCC4)c4ccccc4n3)nccc2c1 [Compound B9, Cyclohexyl-(2-Isoquinolin-1-yl-Quinazolin-4-yl)-Amine]	274.8 to 276.9
Clc1ccc(Nc2nc(-c3cccc(Cl)n3)nc3ccccc23)cc1 [Compound B5, (4-Chloro-Phenyl)-[2-(6-Chloro-Pyridin-2-yl)-Quinazolin-4-yl]-Amine]	211.9 to 213.2
Clc1ccc(Nc2nc(-c3cccc(Br)n3)nc3ccccc23)cc1 [Compound A3, [2-(6-Bromo-Pyridin-2-yl)-Quinazolin-4-yl]-(4-Chloro-Phenyl)-Amine]	242.4 to 247.9

Further lines, results first:

melting point [°C]	SMILES
> 350	Oc1cccc(-c2nc(Nc3ccc(Cl)cc3)c3ccccc3n2)n1 [Compound A5, 6-[4-(4-Chloro-Phenylamino)-Quinazolin-2-yl]-Pyridin-2-ol]
221.4 to 224.5	Clc1ccc(CNc2nc(-c3nccc4ccccc34)nc3ccccc23)cc1 [Compound B11, (4-Chloro-Benzyl)-(2-Isoquinolin-1-yl-quinazolin-4-yl)-Amine]
253.1 to 254.9	Cc1cccc(-c2nc(NC3CCCCC3)c3ccccc3n2)n1 [Compound B2, Cyclohexyl-[2-(6-Methyl-Pyridin-2-yl)-Quinazolin-4-yl]-Amine]
187.4 to 189.7	Clc1ccc(CNc2nc(-c3cccc(Cl)n3)nc3ccccc23)cc1 [Compound B6, (4-Chloro-Benzyl)-[2-(6-chloro-Pyridin-2-yl)-Quinazolin-4-yl]-Amine]
218.4 to 220.9	Clc1cccc(-c2nc(NC3CCCCC3)c3ccccc3n2)n1 [Compound B4, [2-(6-Chloro-Pyridin-2-yl)-Quinazolin-4-yl]-Cyclohexyl-Amine]
118.3 to 121.4	Fc1cccc(-c2nc(Nc3ccc(Cl)cc3)c3ccccc3n2)n1 [Compound A2, (4-Chloro-Phenyl)-[2-(6-Fluoro-Pyridin-2-yl)-Quinazolin-4-yl]-Amine]

biological target: T1, hSK3 channels (Homo sapiens, UniProt Q9UGI6); assay: whole-cell patch-clamp recording of ionic current through SK channels (subtype 3) in HEK293 cells expressing hSK3; type: cell-based
T1 construct: expressed in transfected cells; host or cells: HEK293
Experimental: The ionic current through small-conductance Ca^2+-activated K^+ channels (SK channels, subtype 3) is recorded using HEK293 tissue culture cells expressing hSK3 channels in a whole-cell configuration of the patch-clamp technique as described in e.g. WO 2006/100212.
For activators a SC100 value may be estimated. The SC100 value is defined as the Stimulating Concentration required for increasing the baseline current by 100%. The SC100 value determined for Compound A1 of the invention was well below 0.1 μM, which is an indication of its strong SK3 activating properties.

SC100 value (Stimulating Concentration required for increasing the baseline current by 100%)	SMILES
below 0.1 μM	Cc1cccc(-c2nc(Nc3ccc(Cl)cc3)c3ccccc3n2)n1 [Compound A1, (4-Chloro-Phenyl)-[2-(6-Methyl-Pyridin-2-yl)-Quinazolin-4-yl]-Amine]

From US20090306102A1, “2-PYRIDIN-2-YL-QUINAZOLINE DERIVATIVES AS POTASSIUM CHANNEL MODULATING AGENTS FOR THE TREATMENT OF RESPIRATORY DISEASES” (priority 2005, published 2009)
